Source: patent US9242996B2 (Novartis AG, priority 2013, dated 2016)

Biological target: activated ERK2 (Homo sapiens (Human), UniProt P28482)
Test: Activated ERK2 (20 pM) Kinase Assay (AlphaScreen, ERKtide phosphorylation)
Assay type: biochemical
Settings: 0.02 nM ERK2, 400 nM ERKtide peptide, 35 μM ATP, 30 min preincubation
Description: Activated ERK2 (20 pM) Kinase Assay:
The assay was carried out in 20 mM HEPES [pH 7.5], 5 mM MgCl2, 1 mM DTT, 0.01% Tween-20, 0.05% BSA using 0.02 nM ERK2, 400 nM ERKtide peptide and 35 μM ATP (all concentrations are final in the reaction) in a total volume of 10.25 μL. […] Compound dilution series were prepared in 100% DMSO. ERK2 was preincubated with compounds for 30 minutes at ambient temperature. Reaction was initiated by addition of a substrate cocktail of ERKtide peptide and ATP and was allowed to proceed for 4 hours at ambient temperature. Reaction was terminated by addition of 10 μL of a 2× stop buffer consisting of 100 mM Tris-Cl [pH 7.5], 25 mM EDTA, 0.01% Tween 20, 20 μg/mL of AlphaScreen Protein A Acceptor Beads, 20 μg/mL of Streptavidin Donor Beads (PerkinElmer, Waltham, Mass.), and 1:1000 dilution phospho-EGF Receptor (Thr669) antibody (Cat #8808, Cell Signaling Technology, Danvers, Mass.). Terminated reactions were read, after overnight incubation in the dark, on an EnVision Multilabel Plate Reader (PerkinElmer, Waltham, Mass.), with excitation and emission wavelengths set to 680 nm and 570 nm, respectively. IC50 values were determined using a four-parameter fit.

activated ERK2, sequence (P28482 whole entry): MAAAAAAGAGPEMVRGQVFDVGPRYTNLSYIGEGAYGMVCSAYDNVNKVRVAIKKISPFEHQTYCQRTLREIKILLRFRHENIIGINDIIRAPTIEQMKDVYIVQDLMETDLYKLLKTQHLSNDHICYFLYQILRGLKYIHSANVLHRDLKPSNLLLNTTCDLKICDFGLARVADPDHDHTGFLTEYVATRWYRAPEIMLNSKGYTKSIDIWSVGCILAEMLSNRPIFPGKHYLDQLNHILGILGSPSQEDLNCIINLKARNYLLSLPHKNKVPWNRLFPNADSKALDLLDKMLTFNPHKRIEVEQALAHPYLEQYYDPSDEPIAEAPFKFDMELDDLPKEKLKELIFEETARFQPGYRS

Row | Compound | IC50 [nM]
1 | Nc1ncc([C@H]2CCC[C@@H](O)C2)nc1-c1ccc(C(=O)N[C@H](CO)c2cccc(Cl)c2)c(F)c1 (single isomer, unassigned) [Example 198] | 0.223
2 | Nc1ncc([C@H]2CCC[C@@H](O)C2)nc1-c1ccc(C(=O)N[C@H](CO)c2cccc(Cl)c2)c(F)c1 (single isomer, unassigned) [Example 199] | 0.3
3 | NC[C@@H](NC(=O)c1ccc(-c2nc(C3CCCC(O)C3)cnc2N)cc1F)c1cccc(Cl)c1 (single isomer, unassigned) [Example 367] | 0.15
4 | NC[C@@H](NC(=O)c1ccc(-c2nc(C3CCCC(O)C3)cnc2N)cc1F)c1cccc(Cl)c1 (single isomer, unassigned) [Example 368] | 0.0895
5 | NC[C@@H](NC(=O)c1ccc(-c2nc(C3CCCC(O)C3)cnc2N)cc1F)c1cccc(Cl)c1 (single isomer, unassigned) [Example 370] | 0.138
6 | NC[C@@H](NC(=O)c1ccc(-c2nc(C3CCCC(O)C3)cnc2N)cc1F)c1cccc(Cl)c1 (single isomer, unassigned) [Example 372] | 0.04
7 | Nc1ncc(C2CCCC(O)C2)nc1-c1ccc(C(=O)N[C@H](CO)c2cc(F)cc(Br)c2)c(F)c1 (single isomer, unassigned) [Example 384] | 0.0614
8 | Nc1ncc(C2CCCC(O)C2)nc1-c1ccc(C(=O)N[C@H](CO)c2cccc(Br)c2)c(F)c1 (single isomer, unassigned) [Example 385] | 0.122
9 | Nc1ncc(C2CCCC(O)C2)nc1-c1ccc(C(=O)N[C@H](CO)c2cc(F)cc(Br)c2)c(F)c1 (single isomer, unassigned) [Example 386] | 0.0333
10 | Nc1ncc(C2CCCC(O)C2)nc1-c1ccc(C(=O)N[C@H](CO)c2cccc(Br)c2)c(F)c1 (single isomer, unassigned) [Example 389] | 0.0308
11 | Nc1ncc(C2CCCC(O)C2)nc1-c1ccc(C(=O)N[C@H](CO)c2cccc(Cl)c2)c(F)c1 (single isomer, unassigned) [Example 391] | 0.115
12 | Nc1ncc(C2CCCC(O)C2)nc1-c1ccc(C(=O)N[C@H](CO)c2cccc(Cl)c2)c(F)c1 (single isomer, unassigned) [Example 393] | 0.0752
13 | CN1C[C@@H](NC(=O)c2ccc(-c3cc(-c4cnn(C)c4)cnc3N)cc2F)[C@H](c2ccc(F)c(Cl)c2)C1 (stereo in doubt) [Example 207, trans-4-(2-amino-5-(1-methyl-1H-pyrazol-4-yl)pyridin-3-yl)-N-((3S,4R)-4-(3-chloro-4-fluorophenyl)-1-methylpyrrolidin-3-yl)-2-fluorobenzamide] | 430
14 | CN1C[C@H](NC(=O)c2ccc(-c3cc(-c4cnn(C)c4)cnc3N)cc2F)[C@@H](c2ccc(F)c(Cl)c2)C1 (stereo in doubt) [Example 208, trans-4-(2-amino-5-(1-methyl-1H-pyrazol-4-yl)pyridin-3-yl)-N-((3R,4S)-4-(3-chloro-4-fluorophenyl)-1-methylpyrrolidin-3-yl)-2-fluorobenzamide] | 7440
15 | CN1C[C@@H](NC(=O)c2ccc(-c3cc(-c4cnn(C)c4)cnc3N)cc2F)[C@H](c2ccc(Cl)c(F)c2)C1 (stereo in doubt) [Example 209, trans-4-(2-amino-5-(1-methyl-1H-pyrazol-4-yl)pyridin-3-yl)-N-((3S,4R)-4-(4-chloro-3-fluorophenyl)-1-methylpyrrolidin-3-yl)-2-fluorobenzamide] | 3280
16 | CN1C[C@H](NC(=O)c2ccc(-c3cc(-c4cnn(C)c4)cnc3N)cc2F)[C@@H](c2ccc(Cl)c(F)c2)C1 (stereo in doubt) [Example 210, trans-4-(2-amino-5-(1-methyl-1H-pyrazol-4-yl)pyridin-3-yl)-N-((3R,45)-4-(4-chloro-3-fluorophenyl)-1-methylpyrrolidin-3-yl)-2-fluorobenzamide] | 10300

Row | Compound | IC50 [nM]
17 | CO[C@H]1CC[C@H](c2cnc(N)c(-c3ccc(C(=O)N[C@H](CN)c4cccc(Cl)c4)c(F)c3)n2)CC1 [Example 18, N—((S)-2-amino-1-(3-chlorophenyl)ethyl)-4-(3-amino-6-((1r,4S)-4-methoxycyclohexyl)pyrazin-2-yl)-2-fluorobenzamide] | 0.0396
18 | C[C@]1(O)CC[C@@H](c2cnc(N)c(-c3ccc(C(=O)N[C@H](CO)c4cccc(Cl)c4)c(F)c3)n2)CC1 [Example 105, 4-(3-amino-6-((1s,4R)-4-hydroxy-4-methylcyclohexy)pyrazin-2-yl)-N-((S)-1-(3-chlorophenyl)-2-hydroxyethyl)-2-fluorobenzamide] | 2.56
19 | C[C@]1(O)CC[C@H](c2cnc(N)c(-c3ccc(C(=O)N[C@H](CO)c4cccc(Cl)c4)c(F)c3)n2)CC1 [Example 106, 4-(3-amino-6-((1r,4S)-4-hydroxy-4-methylcyclohexyl)pyrazin-2-yl)-N-((S)-1-(3-chlorophenyl)-2-hydroxyethyl)-2-fluorobenzamide] | 1.28
20 | Cc1c(-c2cnc(N)c(-c3ccc(C(=O)N[C@H](CO)c4cccc(Cl)c4)c(F)c3)c2)cnn1C [Example 133, (S)-4-(2-amino-5-(1-deuterido-methyl, 5-methyl-1H-pyrazol-4-yl)pyridin-3-yl)-N-(1-(3-chlorophenyl)-2-hydroxyethyl)-2-fluorobenzamide] | 0.0187
21 | Nc1ncc(C2CCOCC2)nc1-c1ccc(C(=O)N[C@H](CO)c2ccccc2)cc1 [Example 135, (S)-4-(3-amino-6-(2,2,6,6-tetradeuterido-tetrahydro-2H-pyran-4-yl)pyrazin-2-yl)-N-(2-hydroxy-1-phenylethyl)benzamide] | 0.631
22 | NC[C@@H](NC(=O)c1ccc(-c2nc(C3CCOCC3)cnc2N)cc1F)c1cccc(Cl)c1 [Example 174, (S)—N-(2-amino-1-(3-chlorophenyl)ethyl)-4-(3-amino-6-(tetrahydro-2H-pyran-4-yl)pyrazin-2-yl)-2-fluorobenzamide] | 0.021
23 | CNC[C@@H](NC(=O)c1ccc(-c2nc(C3CCOCC3)cnc2N)cc1F)c1cccc(Cl)c1 [Example 176, (S)-4-(3-amino-6-(tetrahydro-2H-pyran-4-yl)pyrazin-2-yl)-N-(1-(3-chlorophenyl)-2-(methylamino)ethyl)-2-fluorobenzamide] | 0.0282
24 | Nc1ncc([C@H]2CC[C@H](O)CC2)nc1-c1ccc(C(=O)N[C@H](CO)c2cc(F)cc(CF)c2)c(F)c1 [Example 177, 4-(3-amino-6-((1r,4S)-4-hydroxycyclohexyl)pyrazin-2-yl)-2-fluoro-N—((S)-1-(3-fluoro-5-(fluoromethyl)phenyl)-2-hydroxyethyl)benzamide] | 0.0229
25 | Nc1ncc([C@H]2CC[C@@H](O)CC2)nc1-c1ccc(C(=O)N[C@H](CO)c2cc(F)cc(CF)c2)c(F)c1 [Example 178, 4-(3-amino-6-((1s,4R)-4-hydroxycyclohexyl)pyrazin-2-yl)-2-fluoro-N—((S)-1-(3-fluoro-5-(fluoromethyl)phenyl)-2-hydroxyethyl)benzamide] | 0.211
26 | NC[C@@H](NC(=O)c1ccc(-c2nc(C3CCOCC3)cnc2N)cc1F)c1cc(F)cc(I)c1 [Example 179, (S)—N-(2-amino-1-(3-fluoro-5-iodophenyl)ethyl)-4-(3-amino-6-(tetrahydro-2H-pyran-4-yl)pyrazin-2-yl)-2-fluorobenzamide] | 0.00612
27 | NC[C@@H](NC(=O)c1ccc(-c2nc(C3CCOCC3)cnc2N)cc1F)c1cc(F)cc(Br)c1 [Example 180, (S)—N-(2-amino-1-(3-bromo-5-fluorophenyl)ethyl)-4-(3-amino-6-(tetrahydro-2H-pyran-4-yl)pyrazin-2-yl)-2-fluorobenzamide] | 0.00671
28 | NC[C@@H](NC(=O)c1ccc(-c2nc(C3CCOCC3)cnc2N)cc1F)c1cc(F)cc(Cl)c1 [Example 181, (S)—N-(2-amino-1-(3-chloro-5-fluorophenyl)ethyl)-4-(3-amino-6-(tetrahydro-2H-pyran-4-yl)pyrazin-2-yl)-2-fluorobenzamide] | 0.0119
29 | Nc1ncc([C@H]2CC[C@H](O)[C@@H](F)C2)nc1-c1ccc(C(=O)N[C@H](CO)c2cc(F)cc(Br)c2)c(F)c1 [Example 182, 4-(3-amino-6-((1S,3S,4S)-3-fluoro-4-hydroxycyclohexyl)pyrazin-2-yl)-N—((S)-1-(3-bromo-5-fluorophenyl)-2-hydroxyethyl)-2-fluorobenzamide] | 0.051
30 | Nc1ncc([C@@H]2CC[C@@H](O)[C@H](F)C2)nc1-c1ccc(C(=O)N[C@H](CO)c2cc(F)cc(Br)c2)c(F)c1 [Example 183, 4-(3-amino-6-((1R,3R,4R)-3-fluoro-4-hydroxycyclohexyl)pyrazin-2-yl)-N—((S)-1-(3-bromo-5-fluorophenyl)-2-hydroxyethyl)-2-fluorobenzamide] | 0.0571
31 | CNC[C@@H](NC(=O)c1ccc(-c2nc([C@H]3CC[C@H](O)[C@@H](F)C3)cnc2N)cc1F)c1cc(F)cc(Br)c1 [Example 184, 4-(3-amino-6-((1S,3S,4S)-3-fluoro-4-hydroxycyclohexyl)pyrazin-2-yl)-N—((S)-1-(3-bromo-5-fluorophenyl)-2-(methylamino)ethyl)-2-fluorobenzamide] | 0.0261
32 | Nc1ncc([C@@H]2CC[C@H](O)[C@H](F)C2)nc1-c1ccc(C(=O)N[C@H](CO)c2cc(F)cc(Br)c2)c(F)c1 [Example 185, 4-(3-amino-6-((1R,3R,4S)-3-fluoro-4-hydroxycyclohexyl)pyrazin-2-yl)-N—((S)-1-(3-bromo-5-fluorophenyl)-2-hydroxyethyl)-2-fluorobenzamide] | 0.924
